Laboratory results: PubChem BioAssay (NCI)
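Briefly, cells in 96-well plates were exposed to five compound concentrations for 48 h, and endpoints were estimated by linear interpolation. At the TGI there is no net growth.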

Key:
Test in all cases: inhibition of tumour cell growth, NCI panel, 48 h
[1] = test system: DMS 114 small cell lung
[2] = test system: OVCAR-4 ovarian
[3] = test system: SF-295 CNS
[4] = test system: UACC-257 melanoma
[5] = test system: XF 498 CNS
[6] = test system: KM12 colon
[7] = test system: SN12C renal
[8] = test system: SR leukemia
[9] = test system: SNB-75 CNS
[10] = test system: OVCAR-3 ovarian
[11] = test system: SNB-78 CNS
[12] = test system: U251 CNS
[13] = test system: IGROV1 ovarian
[14] = test system: KM20L2 colon
[15] = test system: HOP-18 NSCLC
[16] = test system: HT29 colon
[17] = test system: SK-MEL-2 melanoma
[18] = test system: A498 renal
[19] = test system: HOP-62 NSCLC
[20] = test system: M14 melanoma
[21] = test system: TK-10 renal
[22] = test system: A549 NSCLC
[23] = test system: SW-620 colon
[24] = test system: MALME-3M melanoma
[25] = test system: 786-0 renal
[26] = test system: K-562 leukemia
[27] = test system: UACC-62 melanoma
[28] = test system: MOLT-4 leukemia
[29] = test system: RXF 393 renal
[30] = test system: M19-MEL melanoma
[31] = test system: OVCAR-8 ovarian
[32] = test system: DLD-1 colon
[33] = test system: UO-31 renal
[34] = test system: RPMI-8226 leukemia
[35] = test system: ACHN renal
[36] = test system: NCI-H23 lung
[37] = test system: CCRF-CEM leukemia
[38] = test system: SF-539 CNS
[39] = test system: HCT-116 colon
[40] = test system: COLO 205 colon
[41] = test system: HL-60(TB) leukemia
[42] = test system: HCT-15 colon
[43] = test system: SF-268 CNS
[44] = test system: LXFL 529 NSCLC
[45] = test system: HOP-92 NSCLC
[46] = test system: NCI-H226 lung
[47] = test system: CAKI-1 renal
[48] = test system: SK-MEL-5 melanoma
[49] = test system: NCI-H460 lung
[50] = test system: OVCAR-5 ovarian
[51] = test system: DMS 273 small cell lung
[52] = test system: SK-OV-3 ovarian
[53] = test system: EKVX NSCLC
[54] = test system: HCC-2998 colon
[55] = test system: NCI-H522 lung
[56] = test system: LOX IMVI melanoma
[57] = test system: SK-MEL-28 melanoma
[58] = test system: SNB-19 CNS
[59] = test system: RXF-631 renal

For CC#CC1C(OC(=O)c2ccccc2)CCCC1(CI)N=[N+]=[N-] (stereo not drawn), the TGI [1] was 99.2 µM, the TGI [2] was > 100 µM and the TGI [3] was > 100 µM. For the same compound, the TGI [4] was > 100 µM, the TGI [5] was 78.7 µM and the TGI [6] was > 100 µM. For the same compound, the TGI [7] was > 100 µM, the TGI [8] was 55.2 µM and the TGI [9] was > 100 µM. For the same compound, the TGI [10] was > 100 µM, the TGI [11] was > 100 µM and the TGI [12] was > 100 µM. The TGI [13] was > 100 µM, the TGI [14] was > 100 µM and the TGI [15] was > 100 µM. For the same compound, the TGI [16] was > 100 µM, the TGI [17] was > 100 µM and the TGI [18] was > 100 µM. For the same compound, the TGI [19] was > 100 µM, the TGI [20] was > 100 µM and the TGI [21] was > 100 µM. The TGI [22] was > 100 µM, the TGI [23] was > 100 µM and the TGI [24] was > 100 µM. For the same compound, the TGI [25] was > 100 µM, the TGI [26] was > 100 µM and the TGI [27] was > 100 µM. For the same compound, the TGI [28] was 44.4 µM, the TGI [29] was > 100 µM and the TGI [30] was > 100 µM. The TGI [31] was > 100 µM, the TGI [32] was > 100 µM and the TGI [33] was > 100 µM. For the same compound, the TGI [34] was 86.2 µM, the TGI [35] was > 100 µM and the TGI [36] was > 100 µM. The TGI [37] was > 100 µM, the TGI [38] was > 100 µM and the TGI [39] was > 100 µM. For the same compound, the TGI [40] was > 100 µM, the TGI [41] was 42.2 µM and the TGI [42] was > 100 µM. For the same compound, the TGI [43] was > 100 µM, the TGI [44] was > 100 µM and the TGI [45] was > 100 µM. For the same compound, the TGI [46] was > 100 µM, the TGI [47] was > 100 µM and the TGI [48] was 42.2 µM. For the same compound, the TGI [49] was > 100 µM, the TGI [50] was > 100 µM and the TGI [51] was > 100 µM. For the same compound, the TGI [52] was > 100 µM, the TGI [53] was > 100 µM and the TGI [54] was > 100 µM. For the same compound, the TGI [55] was 63.8 µM.

CCOC(=O)C1=C(Nc2cccc3ccccc23)OC/C1=N\NC(=O)c1ccccc1O was tested, and the TGI [1] was 31.6 µM, the TGI [56] was > 72.5 µM and the TGI [2] was > 59.1 µM. For the same compound, the TGI [3] was > 100 µM, the TGI [4] was 77.1 µM and the TGI [5] was 30.7 µM. The TGI [6] was > 100 µM, the TGI [7] was > 88 µM and the TGI [8] was 41.4 µM. For the same compound, the TGI [9] was 39.5 µM, the TGI [10] was 60 µM and the TGI [12] was > 100 µM. The TGI [13] was 29.8 µM, the TGI [14] was 90.8 µM and the TGI [15] was 83.7 µM. The TGI [16] was > 88.5 µM, the TGI [17] was > 100 µM and the TGI [18] was 70.6 µM. For the same compound, the TGI [57] was > 100 µM, the TGI [19] was > 100 µM and the TGI [20] was > 100 µM. For the same compound, the TGI [21] was > 100 µM, the TGI [22] was > 100 µM and the TGI [23] was > 100 µM. For the same compound, the TGI [24] was > 100 µM, the TGI [25] was > 100 µM and the TGI [26] was > 100 µM. The TGI [27] was 48.9 µM, the TGI [28] was 53.5 µM and the TGI [29] was > 37.5 µM. For the same compound, the TGI [30] was > 100 µM, the TGI [31] was 67.8 µM and the TGI [32] was 81.5 µM. For the same compound, the TGI [33] was > 87.6 µM, the TGI [34] was > 100 µM and the TGI [35] was > 100 µM. For the same compound, the TGI [36] was 15.3 µM, the TGI [37] was 37.1 µM and the TGI [38] was 46.8 µM. For the same compound, the TGI [39] was > 69.6 µM, the TGI [40] was 29.3 µM and the TGI [41] was 37.8 µM. For the same compound, the TGI [42] was > 100 µM, the TGI [43] was > 100 µM and the TGI [58] was > 100 µM. For the same compound, the TGI [44] was > 100 µM, the TGI [45] was 46.1 µM and the TGI [46] was > 100 µM. For the same compound, the TGI [47] was 80.2 µM, the TGI [59] was > 100 µM and the TGI [48] was 37.4 µM. For the same compound, the TGI [49] was > 71.4 µM, the TGI [50] was > 100 µM and the TGI [51] was > 61.1 µM. The TGI [52] was > 100 µM, the TGI [53] was > 82.7 µM and the TGI [54] was > 100 µM. For the same compound, the TGI [55] was 24.8 µM.
